# Source: US11090304B2 (Amgen Inc., priority 2018, dated 2021)
# Molecular target: GDP-bound KRAS protein (aa 1-169), containing both G12C and C118A amino acid substitutions (Homo sapiens, UniProt P01116, C118A/G12C)
# Assay: Coupled nucleotide exchange assay (SOS-mediated, AlphaScreen)
# Format: biochemical
# Conditions: not given
# Sequence of GDP-bound KRAS protein (aa 1-169), containing both G12C and C118A amino acid substitutions (P01116 1-169 isoform P01116-2 G12C/C118A): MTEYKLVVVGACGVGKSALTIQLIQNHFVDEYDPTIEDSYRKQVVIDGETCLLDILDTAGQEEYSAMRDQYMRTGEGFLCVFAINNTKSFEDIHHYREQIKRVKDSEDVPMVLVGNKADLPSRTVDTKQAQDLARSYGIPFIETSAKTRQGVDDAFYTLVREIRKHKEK
row,Structure (SMILES),Coupled exchange IC50 (5 min)
1,"C=CC(=O)N1[C@@H]2C[C@H]1CN(c1nc(=O)n(-c3c(C)ccnc3C(C)C)c3nc(-c4ccccc4F)c(Cl)cc13)C2 (atropisomer, axis not shown; (M)) [Example 135, (M)-6-Chloro-7-(2-fluorophenyl)-1-(4-methyl-2-(2-propanyl)-3-pyridinyl)-4-((1R,5S)-6-(2-propenoyl)-3,6-diazabicyclo[3.1.1]heptan-3-yl)pyrido[2,3-d]pyrimidin-2(1H)-one]",3.32 | nda μM

# Same assay, conditions: 5 min compound pre-incubation
row,Structure (SMILES),Coupled exchange IC50 (5 min)
1,"C=CC(=O)N1C[C@H](C)N(c2nc(=O)n(-c3c(C)ccnc3C(C)C)c3nc(Cl)c(Cl)cc23)[C@@H](C)C1 (atropisomer, axis not shown; (M)) [Example 73-14, (M)-6,7-dichloro-4-((2S,6S)-2,6-dimethyl-4-(2-propenoyl)-1-piperazinyl)-1-(4-methyl-2-(2-propanyl)-3-pyridinyl)pyrido[2,3-d]pyrimidin-2(1H)-one]",0.711 | nda μM
2,"C=CC(=O)N1C[C@@H](C)N(c2nc(=O)n(-c3c(C)ccnc3C(C)C)c3nc(-c4c(N)cccc4F)c(Cl)cc23)[C@H](C)C1 (atropisomer, axis not shown; (M)) [Example 73-18, (M)-7-(2-amino-6-fluorophenyl)-6-chloro-4-((2R,6R)-2,6-dimethyl-4-(2-propenoyl)-1-piperazinyl)-1-(4-methyl-2-(2-propanyl)-3-pyridinyl)pyrido[2,3-d]pyrimidin-2(1H)-one]",5.54 | nda μM
3,"C=CC(=O)N1C[C@@H](C)N(c2nc(=O)n(-c3c(C)ccnc3C(C)C)c3nc(-c4c(O)cccc4F)c(Cl)cc23)[C@H](C)C1 (atropisomer, axis not shown; (M)) [Example 73-19, (M)-6-chloro-4-((2R,6R)-2,6-dimethyl-4-(2-propenoyl)-1-piperazinyl)-7-(2-fluoro-6-hydroxyphenyl)-1-(4-methyl-2-(2-propanyl)-3-pyridinyl)pyrido[2,3-d]pyrimidin-2(1H)-one]",7.55 | nda μM
4,"C=CC(=O)N1CCN(c2nc(=O)n(-c3ccccc3C(C)C)c3nc(Cl)c(Cl)cc23)[C@@H](C)C1 (atropisomer, axis not shown; (P)) [Example 61-1-2, (P)-6,7-dichloro-4-((2S)-2-methyl-4-(2-propenoyl)-1-piperazinyl)-1-(2-(2-propanyl)phenyl)pyrido[2,3-d]pyrimidin-2(1H)-one]",20.6 | nda μM
5,"C=CC(=O)N1CCN(c2nc(=O)n(-c3c(C)ccnc3C(C)C)c3nc(Cl)c(Cl)cc23)[C@@H](C)C1 (atropisomer, axis not shown; (P)) [Example 61-2-1, (P)-6,7-dichloro-1-(4-methyl-2-(2-propanyl)-3-pyridinyl)-4-((2S)-2 methyl-4-(2-propenoyl)-1-piperazinyl)pyrido[2,3-d]pyrimidin-2(1H)-one]",8.24 | nda μM
6,"C=CC(=O)N1CCN(c2nc(=O)n(-c3c(CO)ccnc3C(C)C)c3nc(-c4ccccc4F)c(Cl)cc23)C(C)C1 (atropisomer, axis not shown; (P)) [Example 84-1, (P)-6-chloro-7-(2-fluorophenyl)-1-(4-(hydroxymethyl)-2-(2-propanyl)-3-pyridinyl)-4-((2S)-2-methyl-4-(2-propenoyl)-1-piperazinyl)pyrido[2,3-d]pyrimidin-2(1H)-one]",2.71 | nda μM
7,"C=CC(=O)N1CCC(Oc2nc(=O)n(-c3c(C)ccnc3C(C)C)c3nc(-c4ccccc4F)c(Cl)cc23)C1 (racemic) [Example 79-2, (M)-6-chloro-7-(2-fluorophenyl)-1-(4-methyl-2-(2-propanyl)-3-pyridinyl)-4-((1-(2-propenoyl)-3-pyrrolidinyl)oxy)pyrido[2,3-d]pyrimidin-2(1H)-one]",28.6 | nda μM
8,"C=CC(=O)N1CCN(c2nc(=O)n(-c3ccccc3C3CCC3)c3nc(-c4c(O)cccc4F)c(Cl)cc23)[C@@H](C)C1 (single isomer, unassigned) [Example 54-10-1]",1.21 | nda μM
9,"C=CC(=O)N1CCN(c2nc(=O)n(-c3ccccc3C(C)C)c3nc(-c4cc(OC(F)F)ccc4F)c(Cl)cc23)[C@@H](C)C1 (single isomer, unassigned) [Example 54-51-2]",1.84 | nda μM
10,"C=CC(=O)N1CCN(c2nc(=O)n(-c3ccccc3S(C)(=O)=O)c3nc(-c4c(O)cccc4F)c(Cl)cc23)[C@@H](C)C1 (single isomer, unassigned) [Example 54-56-2]",1.24 | nda μM
11,"C=CC(=O)N1CCN(c2nc(=O)n(-c3ccccc3C(C)C)c3nc(C4=CCCCC4)c(Cl)cc23)[C@@H](C)C1 (single isomer, unassigned) [Example 54-75-2]",10.6 | nda μM
12,"C=CC(=O)N1CCN(c2nc(=O)n(-c3ccccc3C(C)C)c3nc(-c4ccc(F)cc4O)c(Cl)cc23)[C@@H](C)C1 (single isomer, unassigned) [Example 54-77-1]",2.71 | nda μM
13,"C=CC(=O)N1CCN(c2nc(=O)n(-c3ccccc3C(C)C)c3nc(-c4cc(F)ccc4O)c(Cl)cc23)[C@@H](C)C1 (single isomer, unassigned) [Example 54-78-1]",7.26 | nda μM
14,"C=CC(=O)N1CCN(c2nc(=O)n(-c3ccccc3C(C)C)c3nc(-c4cc(O)ccc4F)c(Cl)cc23)[C@@H](C)C1 (single isomer, unassigned) [Example 54-88-2]",1.36 | nda μM
15,"C=CC(=O)N1CCN(c2nc(=O)n(-c3ccccc3C3(C)CC3)c3nc(-c4ccccc4F)c(Cl)cc23)[C@@H](C)C1 (single isomer, unassigned) [Example 54-99-1]",1.52 | nda μM
16,"C=CC(=O)N1CCN(c2nc(=O)n(-c3cccnc3C(C)(C)C)c3nc(-c4c(O)cccc4F)c(Cl)cc23)[C@@H](C)C1 (single isomer, unassigned) [Example 54-103-2]",1.48 | nda μM
17,"C=CC(=O)N1CCN(c2nc(=O)n(-c3c(C(C)C)cccc3N(C)C)c3nc(-c4ccccc4F)c(Cl)cc23)[C@@H](C)C1 (single isomer, unassigned) [Example 54-104-1]",0.743 | nda μM
18,"C=CC(=O)N1CCN(c2nc(=O)n(-c3c(OC)ncnc3C(C)C)c3nc(-c4ccccc4F)c(Cl)cc23)[C@@H](C)C1 (single isomer, unassigned) [Example 54-107-1]",0.731 | nda μM
19,"C=CC(=O)N1CCN(c2nc(=O)n(-c3cncnc3C(C)(C)C)c3nc(-c4ccccc4F)c(Cl)cc23)[C@@H](C)C1 (single isomer, unassigned) [Example 54-110-1]",7.71 | nda μM
20,"C=CC(=O)N1CCN(c2nc(=O)n(-c3cccnc3C(C)(C)C)c3nc(-c4ccccc4F)c(Cl)cc23)[C@@H](C)C1 (single isomer, unassigned) [Example 54-112-2]",5.02 | nda μM
21,"C=CC(=O)N1CCN(c2nc(=O)n(-c3c(C)nc(C)nc3C(C)C)c3nc(-c4c(O)cccc4F)c(Cl)cc23)[C@@H](C)C1 (single isomer, unassigned) [Example 55-4-2]",0.642 | nda μM
22,"C=CC(=O)N1CCN(c2nc(=O)n(-c3c(C)ccnc3N(C)C)c3nc(-c4ccccc4F)c(Cl)cc23)[C@@H](C)C1 (single isomer, unassigned) [Example 55-7-1]",0.863 | nda μM
23,"C=CC(=O)N1CCN(c2nc(=O)n(-c3c(C)ncnc3C(C)C)c3nc(-c4ccccc4F)c(Cl)cc23)[C@@H](C)C1 (single isomer, unassigned) [Example 55-13-1]",0.722 | nda μM
24,"C=CC(=O)N1CCN(c2nc(=O)n(-c3c(C)cc(N(C)C)cc3C(C)C)c3nc(-c4ccccc4F)c(Cl)cc23)[C@@H](C)C1 (single isomer, unassigned) [Example 55-16-1]",1.05 | nda μM
25,"C=CC(=O)N1CCN(c2nc(=O)n(-c3nccnc3C(C)(C)C)c3nc(-c4c(O)cccc4F)c(Cl)cc23)[C@@H](C)C1 (single isomer, unassigned) [Example 55-23-1]",18.55 | nda μM
26,"C=CC(=O)N1CCN(c2nc(=O)n(-c3c(O)cccc3C(C)C)c3nc(-c4ccccc4F)c(Cl)cc23)[C@@H](C)C1 (single isomer, unassigned) [Example 55-26-1]",36.9 | nda μM
27,"C=CC(=O)N1CCN(c2nc(=O)n(-c3c(C)cnn3C(C)(C)C)c3nc(-c4ccccc4F)c(Cl)cc23)[C@@H](C)C1 (single isomer, unassigned) [Example 55-38-1]",0.534 | nda μM

# Same assay, conditions: read-out: Coupled exchange IC50 (5 min); 5 min compound pre-incubation
row,Structure (SMILES),IC50 [nM]
1,"C=CC(=O)N1CC(Nc2nc(=O)n(-c3c(C)ccnc3C(C)C)c3nc(-c4ccccc4F)c(Cl)cc23)C1 (atropisomer, axis not shown; (M)) [Example 76-1, (M)-6-Chloro-7-(2-fluorophenyl)-1-(4-methyl-2-(2-propanyl)-3-pyridinyl)-4-((1-(2-propenoyl)-3-azetidinyl)amino)pyrido[2,3-d]pyrimidin-2(1H)-one]",117000
2,"C=CC(=O)N1CC(Oc2nc(=O)n(-c3c(C)ccnc3C(C)C)c3nc(-c4ccccc4F)c(Cl)cc23)C1 (atropisomer, axis not shown; (M)) [Example 79-1, (M)-6-Chloro-7-(2-fluorophenyl)-1-(4-methyl-2-(2-propanyl)-3-pyridinyl)-4-((1-(2-propenoyl)-3-azetidinyl)oxy)pyrido[2,3-d]pyrimidin-2(1H)-one]",3290
3,"C=CC(=O)N1CCN(c2nc(=O)n(-c3c(C)cccc3C(C)C)c3nc(Cl)c(Cl)cc23)[C@@H](C)C1 (atropisomer, axis not shown; (M)) [Example 112, (M)-6,7-Dichloro-1-(2-methyl-6-(2-propanyl)phenyl)-4-((2S)-2-methyl-4-(2-propenoyl)-1-piperazinyl)pyrido[2,3-d]pyrimidin-2(1H)-one]",2450
4,"C=CC(=O)N1CCN(c2nc(=O)n(-c3c(C(C)C)ncc(O)c3C)c3nc(-c4ccccc4F)c(Cl)cc23)[C@@H](C)C1 (atropisomer, axis not shown; (P)) [Example 83-1, (P)-6-Chloro-7-(2-fluorophenyl)-1-(5-hydroxy-4-methyl-2-(2-propanyl)-3-pyridinyl)-4-((2S)-2-methyl-4-(2-propenoyl)-1-piperaninyl)pyrido[2,3-d]pyrimidin-2(1H)-one]",548
